Experimental data from patent US9249131B2, “Modulators of ATP-binding cassette transporters” (Vertex Pharmaceuticals Incorporated, priority 2003, dated 2016).

Target: T1, ΔF508-CFTR (Homo sapiens, UniProt P13569, DEL508-508)
T1 construct: expressed in transfected cells; host or cells: NIH3T3 mouse fibroblasts stably expressing ΔF508-CFTR for the optical, whole-cell and single-channel assays; Fisher rat epithelial (FRT) cells for Ussing chamber follow-up
Test: Assays for ΔF508-CFTR correction and potentiator properties (membrane potential optical and electrophysiological methods)
Type: cell-based
Details: CFTR modulation, % Efficacy
Procedure, shortened: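 NIH3T3 mouse fibroblasts stably expressing ΔF508-CFTR were used, with membrane potential read by DiSBAC2(3)/CC2-DMPE FRET on VIPR. Correctors: 16 h compound exposure at 37 °C, then activation with forskolin plus genistein in Cl⁻-free medium. Potentiators: cells held 24 h at 27 °C, compound added in Cl⁻-free medium, 2-10 μM forskolin 22 s later (final Cl⁻ 28 mM).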

T1 sequence (P13569 with tags, fused parts or gaps DEL508-508): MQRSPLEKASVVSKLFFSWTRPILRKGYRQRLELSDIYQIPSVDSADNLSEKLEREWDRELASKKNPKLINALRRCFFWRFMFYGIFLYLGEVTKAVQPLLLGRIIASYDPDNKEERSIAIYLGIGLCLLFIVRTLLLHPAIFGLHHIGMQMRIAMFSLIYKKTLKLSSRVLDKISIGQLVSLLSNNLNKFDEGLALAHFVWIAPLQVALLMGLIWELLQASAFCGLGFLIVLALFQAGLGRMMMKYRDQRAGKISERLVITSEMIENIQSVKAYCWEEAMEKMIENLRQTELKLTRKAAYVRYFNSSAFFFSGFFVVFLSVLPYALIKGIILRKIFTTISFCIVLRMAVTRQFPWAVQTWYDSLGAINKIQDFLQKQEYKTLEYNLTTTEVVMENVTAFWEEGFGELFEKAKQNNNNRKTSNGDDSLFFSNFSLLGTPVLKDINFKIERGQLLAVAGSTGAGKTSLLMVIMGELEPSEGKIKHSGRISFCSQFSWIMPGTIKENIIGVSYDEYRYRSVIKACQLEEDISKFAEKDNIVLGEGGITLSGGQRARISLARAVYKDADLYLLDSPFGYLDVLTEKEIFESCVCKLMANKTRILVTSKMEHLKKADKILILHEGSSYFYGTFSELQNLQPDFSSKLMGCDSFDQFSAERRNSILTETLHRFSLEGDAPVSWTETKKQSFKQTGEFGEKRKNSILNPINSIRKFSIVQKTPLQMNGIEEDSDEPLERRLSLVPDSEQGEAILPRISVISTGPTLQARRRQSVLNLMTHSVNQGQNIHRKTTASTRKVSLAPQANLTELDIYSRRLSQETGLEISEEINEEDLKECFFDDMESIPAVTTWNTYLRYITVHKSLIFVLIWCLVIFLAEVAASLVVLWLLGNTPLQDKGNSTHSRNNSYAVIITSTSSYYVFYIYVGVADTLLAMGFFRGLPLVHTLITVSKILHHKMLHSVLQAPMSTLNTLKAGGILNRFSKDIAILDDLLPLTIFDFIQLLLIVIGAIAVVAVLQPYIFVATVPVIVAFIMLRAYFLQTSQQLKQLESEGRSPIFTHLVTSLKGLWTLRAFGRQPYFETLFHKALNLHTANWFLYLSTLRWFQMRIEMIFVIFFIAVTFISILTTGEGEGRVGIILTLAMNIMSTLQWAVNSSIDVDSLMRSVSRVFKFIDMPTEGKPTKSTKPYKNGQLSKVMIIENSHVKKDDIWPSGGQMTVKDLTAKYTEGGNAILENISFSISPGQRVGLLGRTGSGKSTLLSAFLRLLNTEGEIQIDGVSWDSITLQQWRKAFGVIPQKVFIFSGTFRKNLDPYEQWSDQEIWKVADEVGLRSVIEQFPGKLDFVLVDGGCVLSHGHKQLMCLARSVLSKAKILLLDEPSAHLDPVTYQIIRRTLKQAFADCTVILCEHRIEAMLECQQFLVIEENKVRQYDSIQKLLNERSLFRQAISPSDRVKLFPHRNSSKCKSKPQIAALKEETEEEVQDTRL

Structure (SMILES)	% Activity
CCC(C(=O)Nc1nc2ccc(S(C)(=O)=O)cc2s1)c1ccccc1 (stereo not shown) [compound 264]	++ (“++” means between 25% to 100%)
CCOc1ccc2nc(NC(=O)C(CC)c3ccccc3)sc2c1 (stereo not shown) [compound 265]	+++ (“+++” means >100%)
CCC(C(=O)Nc1nc2ccc(OC)cc2s1)c1ccccc1 (stereo not shown) [compound 266]	++ (“++” means between 25% to 100%)
CCC(C(=O)Nc1nc2cc(C)c(C)cc2s1)c1ccccc1 (stereo not shown) [compound 267]	++ (“++” means between 25% to 100%)
CCC(C(=O)Nc1nc2cccc(C)c2s1)c1ccccc1 (stereo not shown) [compound 268]	++ (“++” means between 25% to 100%)
COC(=O)CC(C(=O)Nc1ncc(Cc2ccccc2Cl)s1)c1ccccc1 (stereo not shown) [compound 269]	++ (“++” means between 25% to 100%)
CCC(C(=O)Nc1ncc(Cc2ccccc2Cl)s1)c1ccc(OC)cc1 (stereo not shown) [compound 270]	++ (“++” means between 25% to 100%)
CC(CC(=O)Nc1ncc(Cc2ccccc2Cl)s1)c1ccccc1 (stereo not shown) [compound 271]	++ (“++” means between 25% to 100%)
CN(C)C(Cc1ccccc1)C(=O)Nc1ncc(Cc2ccccc2Cl)s1 (stereo not shown) [compound 272]	+++ (“+++” means >100%)
CCC(C(=O)Nc1ncc(Cc2ccccc2OC)s1)c1ccc(OC)cc1 (stereo not shown) [compound 273]	++ (“++” means between 25% to 100%)
COc1ccccc1Cc1cnc(NC(=O)CC(C)c2ccccc2)s1 (stereo not shown) [compound 274]	++ (“++” means between 25% to 100%)
COc1ccccc1Cc1cnc(NC(=O)C(Cc2ccccc2)N(C)C)s1 (stereo not shown) [compound 275]	++ (“++” means between 25% to 100%)
CC(CC(=O)Nc1ncc(Cc2ccccc2C#N)s1)c1ccccc1 (stereo not shown) [compound 276]	++ (“++” means between 25% to 100%)

Results, then the molecule that gave them:

% Activity	Structure (SMILES)
++ (“++” means between 25% to 100%)	CN(C)C(Cc1ccccc1)C(=O)Nc1ncc(Cc2ccccc2C#N)s1 (stereo not shown) [compound 277]
++ (“++” means between 25% to 100%)	CCC(C(=O)Nc1ncc(Cc2ccccc2Cl)n1C)c1ccccc1 (stereo not shown) [compound 278]
++ (“++” means between 25% to 100%)	Cc1csc(NC(=O)C(c2ccccc2)c2ccccc2)n1 [compound 279]
++ (“++” means between 25% to 100%)	CCOC(=O)c1csc(NC(=O)C(c2ccccc2)c2ccccc2)n1 [compound 280]
++ (“++” means between 25% to 100%)	CCOC(=O)Cc1csc(NC(=O)C(c2ccccc2)c2ccccc2)n1 [compound 281]
++ (“++” means between 25% to 100%)	COc1ncccc1Cc1cnc(NC(=O)C(c2ccccc2)c2ccccc2)s1 [compound 282]
++ (“++” means between 25% to 100%)	CCC(C(=O)Nc1ncc(Cc2cccnc2OC)s1)c1ccccc1 (stereo not shown) [compound 283]
++ (“++” means between 25% to 100%)	CCC(C(=O)Nc1ncc(Cc2cccc(OC)c2)s1)c1ccccc1 (stereo not shown) [compound 284]
++ (“++” means between 25% to 100%)	CCC(C(=O)Nc1ncc(Cc2cc(F)ccc2OC)s1)c1ccccc1 (stereo not shown) [compound 285]
++ (“++” means between 25% to 100%)	CCC(C(=O)Nc1ncc(Cc2ccc(OC)cc2)s1)c1ccccc1 (stereo not shown) [compound 286]
++ (“++” means between 25% to 100%)	CCCc1nc(NC(=O)C(c2ccccc2)c2ccccc2)sc1C(=O)OCC [compound 287]
++ (“++” means between 25% to 100%)	CCCc1nc(NC(=O)C(CC)c2ccccc2)sc1C(=O)OCC (stereo not shown) [compound 288]
++ (“++” means between 25% to 100%)	CCC(C(=O)Nc1nc2c(s1)C(=O)CCC2)c1ccccc1 (stereo not shown) [compound 289]

Same assay, conditions: CFTR modulation, tested using the above methods

Structure (SMILES)	EC50
CCC(C(=O)Nc1nc2ccc(S(C)(=O)=O)cc2s1)c1ccccc1 (stereo not shown) [compound 264]	25 to 60 µM
CCOc1ccc2nc(NC(=O)C(CC)c3ccccc3)sc2c1 (stereo not shown) [compound 265]	< 10 µM
CCC(C(=O)Nc1nc2ccc(OC)cc2s1)c1ccccc1 (stereo not shown) [compound 266]	< 10 µM
CCC(C(=O)Nc1nc2cc(C)c(C)cc2s1)c1ccccc1 (stereo not shown) [compound 267]	< 10 µM
CCC(C(=O)Nc1nc2cccc(C)c2s1)c1ccccc1 (stereo not shown) [compound 268]	< 10 µM
COC(=O)CC(C(=O)Nc1ncc(Cc2ccccc2Cl)s1)c1ccccc1 (stereo not shown) [compound 269]	< 10 µM
CCC(C(=O)Nc1ncc(Cc2ccccc2Cl)s1)c1ccc(OC)cc1 (stereo not shown) [compound 270]	< 10 µM
CC(CC(=O)Nc1ncc(Cc2ccccc2Cl)s1)c1ccccc1 (stereo not shown) [compound 271]	< 10 µM
CN(C)C(Cc1ccccc1)C(=O)Nc1ncc(Cc2ccccc2Cl)s1 (stereo not shown) [compound 272]	< 10 µM
CCC(C(=O)Nc1ncc(Cc2ccccc2OC)s1)c1ccc(OC)cc1 (stereo not shown) [compound 273]	< 10 µM
COc1ccccc1Cc1cnc(NC(=O)CC(C)c2ccccc2)s1 (stereo not shown) [compound 274]	25 to 60 µM
COc1ccccc1Cc1cnc(NC(=O)C(Cc2ccccc2)N(C)C)s1 (stereo not shown) [compound 275]	25 to 60 µM
CC(CC(=O)Nc1ncc(Cc2ccccc2C#N)s1)c1ccccc1 (stereo not shown) [compound 276]	25 to 60 µM

The next lines start with the values.

EC50	Structure (SMILES)
25 to 60 µM	CN(C)C(Cc1ccccc1)C(=O)Nc1ncc(Cc2ccccc2C#N)s1 (stereo not shown) [compound 277]
< 10 µM	CCC(C(=O)Nc1ncc(Cc2ccccc2Cl)n1C)c1ccccc1 (stereo not shown) [compound 278]
25 to 60 µM	Cc1csc(NC(=O)C(c2ccccc2)c2ccccc2)n1 [compound 279]
< 10 µM	CCOC(=O)c1csc(NC(=O)C(c2ccccc2)c2ccccc2)n1 [compound 280]
10 to 25 µM	CCOC(=O)Cc1csc(NC(=O)C(c2ccccc2)c2ccccc2)n1 [compound 281]
< 10 µM	COc1ncccc1Cc1cnc(NC(=O)C(c2ccccc2)c2ccccc2)s1 [compound 282]
< 10 µM	CCC(C(=O)Nc1ncc(Cc2cccnc2OC)s1)c1ccccc1 (stereo not shown) [compound 283]
< 10 µM	CCC(C(=O)Nc1ncc(Cc2cccc(OC)c2)s1)c1ccccc1 (stereo not shown) [compound 284]
< 10 µM	CCC(C(=O)Nc1ncc(Cc2cc(F)ccc2OC)s1)c1ccccc1 (stereo not shown) [compound 285]
< 10 µM	CCC(C(=O)Nc1ncc(Cc2ccc(OC)cc2)s1)c1ccccc1 (stereo not shown) [compound 286]
< 10 µM	CCCc1nc(NC(=O)C(c2ccccc2)c2ccccc2)sc1C(=O)OCC [compound 287]
< 10 µM	CCCc1nc(NC(=O)C(CC)c2ccccc2)sc1C(=O)OCC (stereo not shown) [compound 288]
25 to 60 µM	CCC(C(=O)Nc1nc2c(s1)C(=O)CCC2)c1ccccc1 (stereo not shown) [compound 289]
